Results reported in patent publication US12559529B2, “NPY2 receptor agonists” (Boehringer Ingelheim International GmbH, priority 2019, dated 2026).

Experiments:
normal NMRI mice = assay: Effect on acute food intake in normal NMRI mice; assay type: in vivo; settings: male NMRI mice, 10 nmol/kg subcutaneously once
Outline: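 A single 10 nmol/kg s.c. peptide dose was given 1 h before lights-off to male NMRI mice fasted from 6 h before the night phase (n=7-8). Intake was recorded continuously by microchip-identified HM-2 feeding channels. Values are normalized to vehicle controls (50 mM phosphate buffer pH7 with 5% Mannitol).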

human NPY5 receptor = target: T1, human NPY5 receptor (Homo sapiens, UniProt Q15761); assay: HTRF cAMP Gi assay, hY5R
T1 sequence (Q15761 1-445): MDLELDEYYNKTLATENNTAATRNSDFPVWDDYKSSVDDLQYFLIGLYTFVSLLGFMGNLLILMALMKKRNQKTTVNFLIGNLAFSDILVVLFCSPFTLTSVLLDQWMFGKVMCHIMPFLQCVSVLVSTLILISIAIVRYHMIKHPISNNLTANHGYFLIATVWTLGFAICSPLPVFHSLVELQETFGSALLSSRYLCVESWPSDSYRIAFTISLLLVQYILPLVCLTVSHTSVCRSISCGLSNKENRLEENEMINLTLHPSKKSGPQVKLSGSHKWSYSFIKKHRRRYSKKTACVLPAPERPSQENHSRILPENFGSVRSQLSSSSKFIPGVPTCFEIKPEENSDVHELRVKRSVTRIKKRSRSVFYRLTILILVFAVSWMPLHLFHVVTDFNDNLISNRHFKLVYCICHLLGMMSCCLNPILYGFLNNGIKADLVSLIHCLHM
Excerpt: The Homogenous Time Resolved fluorescence (HTRF) technology optimized for Gi coupled receptors has thoroughly been described in Cisbio cAMP Gi kit manual. Briefly, the production of intracellular cAMP will generate a competition between unlabeled cAMP and exogenously added d2-cAMP for anti-cAMP antibodies conjugated to cryptate. CHO-K1 cells stably expressing the human NPY1, NPY2, NPY4 and NPY5 receptors were used with the cells brought to life from a frozen stock immediately before assay performance. 2000 cells per well were applied for all four NPY receptor subtype assays. A 384-well format was used applying a total volume of 20 μl using 5 μl cells, 2.5 μl peptide agonist, 2.5 μl forskolin and 5 μl of each of the fluorophores. […] Concentration-response evaluation of compounds was performed with 11 concentrations of agonist peptides (covering 3 decades). EC50 values were calculated by nonlinear regression using sigmoid concentration-response with variable slope.

human NPY4 receptor = target: T2, human NPY4 receptor (Homo sapiens, UniProt P50391); assay: HTRF cAMP Gi assay, hY4R; assay type: cell-based; settings: Table 4; CHO-K1 cells
T2 construct: expressed in transfected cells; host or cells: CHO-K1

human NPY2 receptor = target: T3, human NPY2 receptor (Homo sapiens, UniProt P49146); assay: HTRF cAMP Gi assay, hY2R
T3 sequence (P49146 1-381): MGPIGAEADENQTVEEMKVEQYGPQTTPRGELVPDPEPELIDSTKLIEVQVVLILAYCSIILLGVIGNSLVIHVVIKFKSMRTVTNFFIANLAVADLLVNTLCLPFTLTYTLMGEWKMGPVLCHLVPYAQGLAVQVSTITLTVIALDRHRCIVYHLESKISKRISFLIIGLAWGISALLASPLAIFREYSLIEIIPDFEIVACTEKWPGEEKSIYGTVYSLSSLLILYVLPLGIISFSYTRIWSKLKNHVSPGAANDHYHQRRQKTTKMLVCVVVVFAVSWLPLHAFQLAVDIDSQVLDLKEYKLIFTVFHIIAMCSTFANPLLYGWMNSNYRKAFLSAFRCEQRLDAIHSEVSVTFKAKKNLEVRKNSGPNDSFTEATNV

human NPY1 receptor = target: T4, human NPY1 receptor (Homo sapiens, UniProt P25929); assay: HTRF cAMP Gi assay, hY1R; assay type: cell-based; settings: Table 4; CHO-K1 cells
T4 construct: expressed in transfected cells; host or cells: CHO-K1
T4 sequence (P25929 1-384): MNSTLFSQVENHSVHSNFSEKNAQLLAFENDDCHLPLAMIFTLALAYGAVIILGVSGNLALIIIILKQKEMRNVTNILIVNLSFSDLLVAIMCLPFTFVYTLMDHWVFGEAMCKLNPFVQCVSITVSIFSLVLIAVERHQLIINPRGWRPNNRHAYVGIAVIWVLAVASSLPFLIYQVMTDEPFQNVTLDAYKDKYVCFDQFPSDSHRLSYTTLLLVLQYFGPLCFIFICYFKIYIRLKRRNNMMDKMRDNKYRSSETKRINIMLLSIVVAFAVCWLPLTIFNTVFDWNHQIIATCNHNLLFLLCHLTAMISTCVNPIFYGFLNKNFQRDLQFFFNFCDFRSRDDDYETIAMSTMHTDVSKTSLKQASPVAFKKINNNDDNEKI

[1] = target: T5, Human Neuropeptide Y2 Receptor (Homo sapiens, UniProt P49146); assay: Radioligand binding competition assay (RLB); settings: Table 3; human 125I-PYY (1-36) 0.02 nM, Y2 receptor membranes; read-out: Ki
T5 construct: purchased CHEMICON HTS066M
T5 sequence (P49146 1-381): T3 sequence (P49146 1-381)
Outline: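 Membranes (0.5 μg/well) and test peptides, serially diluted from 1 mM DMSO stocks, were incubated 2 hours at room temperature in HEPES buffer pH 7.4 with Mg, Ca and ovalbumin.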

T2 sequence (P50391 whole entry): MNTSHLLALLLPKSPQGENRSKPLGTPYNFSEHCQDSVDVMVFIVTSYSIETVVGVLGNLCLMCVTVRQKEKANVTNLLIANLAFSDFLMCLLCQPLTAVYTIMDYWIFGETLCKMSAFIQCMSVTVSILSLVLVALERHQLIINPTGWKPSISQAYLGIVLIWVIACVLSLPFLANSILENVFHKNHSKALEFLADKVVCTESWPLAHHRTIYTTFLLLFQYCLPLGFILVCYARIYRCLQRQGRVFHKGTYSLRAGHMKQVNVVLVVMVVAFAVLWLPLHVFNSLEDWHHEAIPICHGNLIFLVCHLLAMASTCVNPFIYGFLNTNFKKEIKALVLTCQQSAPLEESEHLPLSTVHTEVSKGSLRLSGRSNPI

Row | EC50 (human NPY5 receptor) [nM] | EC50 (human NPY4 receptor) [nM] | EC50 (human NPY2 receptor) [nM] | EC50 (human NPY1 receptor) [nM] | Ki [1] [nM] | SMILES | Acute Food Intake 24 h [% vehicle] (normal NMRI mice)
1 | > 5000 | > 5000 | 0.334 | > 5000 |  | CC[C@H](C)[C@H](NC(=O)[C@H](CCC(=O)O)NC(=O)[C@H](CCC(=O)O)NC(=O)[C@@H]1CCCN1C(=O)[C@H](CO)NC(=O)[C@H](C)NC(=O)[C@H](CC(=O)O)NC(=O)[C@H](CCC(=O)O)NC(=O)[C@H](CCC(=O)O)NC(=O)[C@@H]1CCCN1C(=O)[C@H](CCCCNC(=O)COCCOCCNC(=O)COCCOCCNC(=O)CC[C@H](NC(=O)CCCCCCCCCCCCCCCCC(=O)O)C(=O)O)NC(=O)[C@H](CCC(=O)O)NC(=O)[C@@H]1CCCN1C(=O)[C@H](C)NC(=O)CC(C)C)C(=O)N[C@@H](CCC(N)=O)C(=O)N[C@@H](CCC(N)=O)C(=O)N[C@@H](Cc1ccc(O)cc1)C(=O)N[C@@H](Cc1ccc(O)cc1)C(=O)N[C@H](C(=O)N[C@@H](CO)C(=O)N[C@@H](CC(C)C)C(=O)N[C@@H](CCCNC(=N)N)C(=O)N[C@@H](Cc1c[nH]cn1)C(=O)N[C@@H](Cc1ccc(O)cc1)C(=O)N[C@@H](Cc1ccc(O)cc1)C(=O)N[C@@H](CC(N)=O)C(=O)N[C@@H](Cc1c[nH]c2ccccc12)C(=O)N[C@@H](CC(C)C)C(=O)N[C@H](C(=O)N[C@@H](CCCNC(=N)N)C(=O)N[C@@H](CCC(N)=O)C(=O)N[C@@H](CCCNC(=N)N)C(=O)N[C@@H](Cc1ccc(O)cc1)C(N)=O)[C@@H](C)O)C(C)C [Compound 11, N{alpha-4}-(3-methylbutanoyl)-N{epsilon-7}-[2-(2-{2-[2-(2-{2-[(4S)-4-carboxy-4-(17-carboxyheptadecanamido)butanamido]ethoxy}ethoxy)acetamido]ethoxy}ethoxy)acetamido]-[4A,7K,9E,17I,18Q,19Q,22V,28Y,30W,31L]hPYY (4-36)] | 42
2 | > 5000 | > 5000 | 0.167 | > 5000 | 3.71 | CC(C)CC(=O)N[C@@H](C)C(=O)N1CCC[C@H]1C(=O)N[C@@H](CCC(=O)O)C(=O)N[C@@H](CCCCNC(=O)COCCOCCNC(=O)COCCOCCNC(=O)CC[C@H](NC(=O)CCCCCCCCCCCCCCCCC(=O)O)C(=O)O)C(=O)N1CCC[C@H]1C(=O)N[C@@H](CCC(=O)O)C(=O)N[C@@H](CCC(=O)O)C(=O)N[C@@H](CC(=O)O)C(=O)N[C@@H](C)C(=O)N[C@@H](CCC(=O)O)C(=O)N1CCC[C@H]1C(=O)N[C@@H](CCC(=O)O)C(=O)N[C@@H](CCC(=O)O)C(=O)N[C@@H](CC(C)C)C(=O)N[C@@H](CCC(N)=O)C(=O)N[C@@H](CCC(N)=O)C(=O)N[C@@H](Cc1ccc(O)cc1)C(=O)N[C@@H](Cc1ccc(O)cc1)C(=O)N[C@H](C(=O)N[C@@H](CO)C(=O)N[C@@H](CC(C)C)C(=O)N[C@@H](CCCNC(=N)N)C(=O)N[C@@H](Cc1c[nH]cn1)C(=O)N[C@@H](Cc1ccc(O)cc1)C(=O)N[C@@H](Cc1ccc(O)cc1)C(=O)N[C@@H](CC(N)=O)C(=O)N[C@@H](Cc1c[nH]c2ccccc12)C(=O)N[C@@H](CC(C)C)C(=O)N[C@H](C(=O)N[C@@H](CCCNC(=N)N)C(=O)N[C@@H](CCC(N)=O)C(=O)N[C@@H](CCCNC(=N)N)C(=O)N[C@@H](Cc1ccc(O)cc1)C(N)=O)[C@@H](C)O)C(C)C [Compound 18, N{alpha-4}-(3-methylbutanoyl)-N{epsilon-7}-[2-(2-{2-[2-(2-{2-[(4S)-4-carboxy-4-(17-carboxyheptadecanamido)butanamido]ethoxy}ethoxy)acetamido]ethoxy}ethoxy)acetamido]-[4A,7K,9E,13E,18Q,19Q,22V,28Y,30W,31L]hPYY (4-36)] | 58
3 | > 5000 | > 5000 | 0.159 | > 5000 | 3.22 | CC(C)CC(=O)N[C@@H](C)C(=O)N1CCC[C@H]1C(=O)N[C@@H](CCC(=O)O)C(=O)N[C@@H](CCCCNC(=O)COCCOCCNC(=O)COCCOCCNC(=O)CC[C@H](NC(=O)CCCCCCCCCCCCCCCCC(=O)O)C(=O)O)C(=O)N1CCC[C@H]1C(=O)N[C@@H](CCC(=O)O)C(=O)N[C@@H](CCC(=O)O)C(=O)N[C@@H](CCC(=O)O)C(=O)N[C@@H](C)C(=O)N[C@H](C(=O)N1CCC[C@H]1C(=O)N[C@@H](CCC(=O)O)C(=O)N[C@@H](CCC(=O)O)C(=O)N[C@@H](CC(C)C)C(=O)N[C@@H](CCC(N)=O)C(=O)N[C@@H](CCCNC(=N)N)C(=O)N[C@@H](Cc1ccc(O)cc1)C(=O)N[C@@H](Cc1ccc(O)cc1)C(=O)N[C@H](C(=O)N[C@@H](CO)C(=O)N[C@@H](CC(C)C)C(=O)N[C@@H](CCCNC(=N)N)C(=O)N[C@@H](Cc1c[nH]cn1)C(=O)N[C@@H](Cc1ccc(O)cc1)C(=O)N[C@@H](Cc1ccc(O)cc1)C(=O)N[C@@H](CC(N)=O)C(=O)N[C@@H](Cc1c[nH]c2ccccc12)C(=O)N[C@@H](CC(C)C)C(=O)N[C@H](C(=O)N[C@@H](CCCNC(=N)N)C(=O)N[C@@H](CCC(N)=O)C(=O)N[C@@H](CCCNC(=N)N)C(=O)N[C@@H](Cc1ccc(O)cc1)C(N)=O)[C@@H](C)O)C(C)C)[C@@H](C)O [Compound 41, N{alpha-4}-(3-methylbutanoyl)-N{epsilon-7}-[2-(2-{2-[2-(2-{2-[(4S)-4-carboxy-4-(17-carboxyheptadecanamido)butanamido]ethoxy}ethoxy)acetamido]ethoxy}ethoxy)acetamido]-[4A,7K,9E,11E,13T,18Q,22V,28Y,30W,31L]hPYY (4-36)] | 44
4 | > 5000 | > 5000 | 0.107 | > 5000 | 1.96 | CC(C)CC(=O)N[C@@H](C)C(=O)N1CCC[C@H]1C(=O)N[C@@H](CCC(=O)O)C(=O)N[C@@H](CCCCNC(=O)COCCOCCNC(=O)COCCOCCNC(=O)CC[C@H](NC(=O)CCCCCCCCCCCCCCCCC(=O)O)C(=O)O)C(=O)N1CCC[C@H]1C(=O)N[C@@H](CCC(=O)O)C(=O)N[C@@H](CCC(=O)O)C(=O)N[C@@H](CC(=O)O)C(=O)N[C@@H](C)C(=O)N[C@H](C(=O)N1CCC[C@H]1C(=O)N[C@@H](CCC(=O)O)C(=O)N[C@@H](CCC(=O)O)C(=O)N[C@@H](CC(C)C)C(=O)N[C@@H](CCC(N)=O)C(=O)N[C@@H](CCCCN)C(=O)N[C@@H](Cc1ccc(O)cc1)C(=O)N[C@@H](Cc1ccc(O)cc1)C(=O)N[C@H](C(=O)N[C@@H](CO)C(=O)N[C@@H](CC(C)C)C(=O)N[C@@H](CCCNC(=N)N)C(=O)N[C@@H](Cc1c[nH]cn1)C(=O)N[C@@H](Cc1ccc(O)cc1)C(=O)N[C@@H](Cc1ccc(O)cc1)C(=O)N[C@@H](CC(N)=O)C(=O)N[C@@H](Cc1c[nH]c2ccccc12)C(=O)N[C@@H](CC(C)C)C(=O)N[C@H](C(=O)N[C@@H](CCCNC(=N)N)C(=O)N[C@@H](CCC(N)=O)C(=O)N[C@@H](CCCNC(=N)N)C(=O)N[C@@H](Cc1ccc(O)cc1)C(N)=O)[C@@H](C)O)C(C)C)[C@@H](C)O [Compound 231, N{alpha-4}-(3-methylbutanoyl)-N{epsilon-7}-[2-(2-{2-[2-(2-{2-[(4S)-4-carboxy-4-(17-carboxyheptadecanamido)butanamido]ethoxy}ethoxy)acetamido]ethoxy}ethoxy)acetamido]-[4A,7K,9E,13T,18Q,19K,22V,28Y,30W,31L]hPYY (4-36)] | 
